Results as given in US8361968B2 (Takeda Pharmaceutical Company Limited, priority 2002, dated 2013).
pIC50: −log10 of the molar value. Square brackets hold non-standard residues; d marks the D form. Peptide text beside a SMILES is read from it. * marks the point of attachment. Arg(Me) = CNC(=N)NCCC[C@H](N)C(=O)O; Bta = N[C@@H](Cc1csc2ccccc12)C(=O)O; X6 = O=C(c1c[nH]c2ccccc12)*; azaGly = NNC(=O)O

Experiments:
[1] = target: T1, hOT7T175 (Homo sapiens, UniProt Q969F8, L364H); experiment: hOT7T175 receptor binding activity: binding inhibition of Cy-5-labeled metastin (40-54) on hOT7T175-expressed CHO cells; set-up: expressed in transfected cells; host or cells: CHO cells
T1 sequence (Q969F8 whole entry L364H): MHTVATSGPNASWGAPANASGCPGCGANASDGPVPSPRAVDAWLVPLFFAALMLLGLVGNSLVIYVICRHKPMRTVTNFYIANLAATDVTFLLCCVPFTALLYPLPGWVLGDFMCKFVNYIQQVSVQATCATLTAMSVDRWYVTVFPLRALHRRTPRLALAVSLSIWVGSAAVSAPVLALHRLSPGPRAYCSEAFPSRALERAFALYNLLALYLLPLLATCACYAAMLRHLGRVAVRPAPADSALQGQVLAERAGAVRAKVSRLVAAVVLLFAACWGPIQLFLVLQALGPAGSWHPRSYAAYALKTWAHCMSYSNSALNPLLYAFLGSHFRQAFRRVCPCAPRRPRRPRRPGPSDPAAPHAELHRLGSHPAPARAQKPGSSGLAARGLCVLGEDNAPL

[2] = target: T1, hOT7T175; experiment: Intracellular Ca ion level-increasing activity using FLIPR in hOT7T175/CHO; format: cell-based; set-up: expressed in transfected cells; host or cells: CHO/dhfr- cells, obtained from ATCC; details: relative, Metastin (1-54) = 1

SMILES	pIC50 [1]	Specific Activity (intracellular Ca ion level-increasing activity) [2]
CNC(=N)NCCC[C@H](NC(=O)[C@H](CC(C)C)NC(=O)NNC(=O)[C@H](Cc1ccccc1)NC(=O)[C@H](CO)NC(=O)[C@H](CC(N)=O)NC(=O)[C@H](Cc1c[nH]c2ccccc12)NC(=O)[C@@H](CC(N)=O)NC(=O)[C@H](N)Cc1ccc(O)cc1)C(=O)N[C@@H](Cc1ccccc1)C(N)=O [Compound No. 237, D-Tyr-D-Asn-Trp-Asn-Ser-Phe-AzaGly-Leu-Arg(Me)-Phe-NH2]	7.57	3
CNC(=N)NCCC[C@H](NC(=O)[C@H](CC(C)C)NC(=O)NNC(=O)[C@H](Cc1ccccc1)NC(=O)[C@H](CO)NC(=O)[C@H](CC(N)=O)NC(=O)c1c[nH]c2ccccc12)C(=O)N[C@@H](Cc1ccccc1)C(N)=O [Compound No. 265, Indole-3-carbonyl-Asn-Ser-Phe-AzaGly-Leu-Arg(Me)-Phe-NH2] (X6-NSF[azaGly]L[Arg(Me)]F-NH2)	7.02	3
CC(C)C[C@H](NC(=O)CNC(=O)[C@H](Cc1ccccc1)NC(=O)[C@H](CO)NC(=O)[C@H](CC(N)=O)NC(=O)[C@H](Cc1c[nH]c2ccccc12)NC(=O)[C@H](CC(N)=O)NC(=O)[C@@H](N)Cc1ccc(O)cc1)C(=O)N[C@@H](CCCNC(=N)N)C(=O)N[C@@H](Cc1csc2ccccc12)C(N)=O [Compound No. 189] (H-YNWNSFGLR[Bta]-NH2; N-terminus assumed)	6.64	10
CNC(=N)NCCC[C@H](NC(=O)[C@H](CC(C)C)NC(=O)NNC(=O)[C@H](Cc1ccccc1)NC(=O)[C@H](Cc1ccccc1)NC(=O)[C@H](CO)NC(=O)[C@H](CC(N)=O)NC(=O)[C@H](Cc1ccccc1)NC(=O)[C@H](CC(N)=O)NC(=O)[C@H](N)Cc1ccc(O)cc1)C(=O)N[C@@H](Cc1ccccc1)C(N)=O [Compound No. 270, D-Tyr-Asn-Phe-Asn-Ser-Phe-Phe-AzaGly-Leu-Arg(Me)-Phe-NH2] (H-[dY]NFNSFF[azaGly]L[Arg(Me)]F-NH2)	7.82	1
CC(C)C[C@H](NC(=O)CNC(=O)[C@H](Cc1ccccc1)NC(=O)[C@H](CO)NC(=O)[C@H](CC(N)=O)NC(=O)[C@H](Cc1c[nH]c2ccccc12)NC(=O)[C@H](CC(N)=O)NC(=O)[C@@H](N)Cc1ccc(O)cc1)C(=O)N[C@@H](CCCNC(=N)N)C(=O)N[C@@H](Cc1c(F)c(F)c(F)c(F)c1F)C(N)=O [Compound No. 111]	6.85	3
CC(C)C[C@H](NC(=O)CNC(=O)[C@H](Cc1ccccc1)NC(=O)[C@H](CO)NC(=O)[C@H](CC(N)=O)NC(=O)[C@H](Cc1c[nH]c2ccccc12)NC(=O)[C@H](CC(N)=O)NC(=O)[C@H](Cc1ccc(O)cc1)NC(=O)[C@H](CC(N)=O)NC(=O)[C@@H]1CCCN1C(=O)[C@@H](N)CC(C)C)C(=O)N[C@@H](CCCNC(=N)N)C(=O)N[C@@H](Cc1ccccc1)C(N)=O [Compound No. 32, reference compound]	7.60	10
CC(C)C[C@H](NC(=O)[C@H](CO)NC(=O)[C@H](Cc1ccccc1)NC(=O)[C@H](CO)NC(=O)[C@H](CC(N)=O)NC(=O)[C@H](Cc1c[nH]c2ccccc12)NC(=O)[C@H](CC(N)=O)NC(=O)[C@@H](N)Cc1ccc(O)cc1)C(=O)N[C@@H](CCCNC(=N)N)C(=O)N[C@@H](Cc1ccccc1)C(N)=O [Compound No. 101] (H-YNWNSFSLRF-NH2)	7.00	10
CNC(=N)NCCC[C@H](NC(=O)[C@H](CC(C)C)NC(=O)NNC(=O)[C@H](Cc1ccccc1)NC(=O)[C@H](CO)NC(=O)[C@H](CC(N)=O)NC(=O)[C@@H](N)Cc1c[nH]c2ccccc12)C(=O)N[C@@H](Cc1ccccc1)C(N)=O [Compound No. 271, Trp-Asn-Ser-Phe-AzaGly-Leu-Arg(Me)-Phe-NH2] (H-WNSF[azaGly]L[Arg(Me)]F-NH2; N-terminus assumed)	6.92	1
